Data taken from PMC12750888, “Design, synthesis, and anti-Toxoplasma gondii evaluation of β-carboline derivatives” (Parasites & Vectors, 2025).

Assays:
T. gondii PRU strain = assay: In vitro activity against PRU strain tachyzoites (PV counts, plaques); format: cell-based, Toxoplasma gondii; details: NBZ023 2.85 or 30 μM, NBZ035 1.6 or 30 μM; 24, 48, 72 h
Method: Vero cells were infected for 8 h with extracellular type II PRU strain tachyzoites (1.5 × 10^5), which were isolated from a mouse brain, and then the medium containing compounds or 0.1% DMSO (as a control) was added. After 24, 48, and 72 h of incubation, the numbers of PVs were assessed via […] under a 40 × objective lens, and at least 20 random fields per well were counted.

[1] = tested on: T. gondii RH strain tachyzoites; assay: In vitro anti-invasion assay (qPCR; RH-GFP fluorescence microscopy); format: cell-based, Toxoplasma gondii; details: for IC50: Toxoplasma gondii, RH strain, Vero cells, 2 h after infection, qPCR, read-out: IC50, inhibition of T. gondii invasion; for number of parasitophorous vacuoles (PVs) invaded by RH-GFP tachyzoites: fluorescence microscopy, compared with control and positive control groups
Method: Vero cells were seeded onto 6-well plates and cultured with DMEM supplemented with 10% FBS to obtain cell monolayers. The medium was replaced with fresh DMEM (1% FBS) containing NBZ023 or NBZ035 (0.24–30 μM), pyrimethamine (0.4 μM) or no drugs (as a control), and tachyzoites (2 × 10^6 per well) were then inoculated into the confluent Vero cell monolayers. At 2 h after infection, the cell monolayers were washed twice with PBS to remove extracellular tachyzoites and then total genomic DNA from the cell samples was isolated with the DNAiso reagent (Takara). The anti-invasion capabilities of NBZ023 and NBZ035 were determined by qPCR. The T. gondii RH strain with green fluorescence was seeded as described above. After infection, the cells were incubated for 36 h to fully observe the infection status of the parasites via fluorescence microscopy.

T. gondii tachyzoites = assay: Ultrastructural analysis by transmission electron microscopy; format: cell-based, Toxoplasma gondii; details: NBZ023 2.85 μM, NBZ035 1.6 μM
Method: The effects of the incubation with the drugs on the ultrastructure of T. gondii tachyzoites were observed via transmission electron microscopy (TEM). For TEM analysis, Vero cells were grown to confluence in T25 flasks and infected with 2 × 10^6 T. gondii tachyzoites for 8 h. After NBZ023 (2.85 μM) or NBZ035 (1.6 μM) was added, the cells were cultured for 8 or 24 h, then digested with TrypLE Express for 2 min, and washed twice with PBS. The detailed experimental procedures were described in a previous study.

[2] = tested on: PRU strain bradyzoite cysts; assay: In vitro PRU bradyzoite cyst formation (DBA staining); format: cell-based, Toxoplasma gondii; details: PRU cysts in Vero cells, 48 h; NBZ023 2.85 or 30 μM, NBZ035 1.6 or 30 μM
Method: The conditions for inducing the formation of cysts in vitro by the type II PRU strain were described in a previously published study. After the induction of cyst formation, the alkaline medium was removed and replaced with a medium containing NBZ023, NBZ035, or 0.1% DMSO as the control. After 48 h, the DMEM was removed, and the PRU strain bradyzoite cysts were stained with Dolichos biflorus agglutinin (DBA) to assess the treatment effects.The stained cysts were observed using light microscopy under a 40 × objective lens, with at least 3 random fields per well counted.

Vero cells = assay: Cell viability assay (CCK-8) on Vero cells; format: cell-based, African green monkey; details: 24 h; for Cytotoxicity: CCK-8, tested up to 30 µM; for inhibition at 30 µM: Chlorocebus sabaeus, CCK-8, read-out: Inhibition rate of Vero cell at 30 μM
Method: (§1) African green monkey kidney (Vero) cells were cultured in Dulbecco’s modified Eagle’s medium (DMEM) supplemented with 100 U/mL penicillin, 100 μg/mL streptomycin, 1% nonessential amino acids (NEAAs), 1% GlutaMAX and 10% fetal bovine serum (FBS) at 37 °C in an atmosphere of 5% CO2. […] DMEM without a drug was used as a control. After 24 h of treatment, Cell Counting Kit-8 (CCK-8, CA1210, Solarbio) was used to determine cell viability at 450 nm via a Multiskan GO instrument.

[3] = Cell viability assay (CCK-8) on Vero cells; format: cell-based, African green monkey; details: African green monkey, CCK-8, read-out: half-maximal cytotoxic concentration (CC50) against host cells
Method: as §1

[4] = tested on: T. gondii RH strain tachyzoites; assay: In vitro anti-proliferation assay (qPCR of 529-bp repeat); format: cell-based, Toxoplasma gondii; details: for IC50: Toxoplasma gondii, RH strain in Vero cells, 24 h treatment, qPCR, read-out: IC50, inhibition of T. gondii proliferation
Method: The antiproliferative effects of NBZ023 and NBZ035 on T. gondii were determined via qPCR, which was performed by using a QuantStudio 3 Flex real-time PCR system (Life Technologies). Cells were infected with tachyzoites (2 × 10^5 per well) for 6 h, then treated with NBZ023, NBZ035 (0.24‒30 μM) or pyrimethamine (0.4 μM) for 24 h, and washed twice with PBS. Infected or uninfected cells that were cultured with DMEM (1% FBS) were used as the parasite or the host cell control group, respectively. Total genomic DNA from the cell samples was isolated with the DNAiso reagent (Takara), and the levels of the 529-bp repeat sequence of T. gondii were measured via qPCR as before.

[5] = tested on: T. gondii Type I tachyzoites; assay: In vivo efficacy against acute T. gondii infection in mice (tissue parasite burden by qPCR); design: species or system BALB/c mice; details: acute RH infection, once daily for 7 days, compared with parasite control, NBZ compounds 10 mg/kg BW intraperitoneally, positive control orally
Method: Female BALB/c mice (18-20 g, 6-8 weeks old) were divided into 4 groups consisting of 6 mice each, and each mouse was injected intraperitoneally with 2 × 10^3 Type I tachyzoites. Four hours after inoculation, the treatments were administered once per day for 7 consecutive days. NBZ023 and NBZ035 were dissolved in isotonic saline containing 5% ethanol and 5% Cremophor EL to a concentration of 1 mg/mL for in vivo experiments. Sulfadiazine (10 mg/mL, Sigma, USA), pyrimethamine (5 mg/mL, Sigma, USA), and folinic acid (1.5 mg/mL, Sigma, USA) were suspended in isotonic saline containing 1% CMC-Na and used as positive drugs in in vivo experiments. […] After the mice were euthanized on the eighth day, the brains, livers, and spleens were collected. DNA was isolated with a DNA purification kit ([…], Omega Bio-Tek, USA). The in vivo efficacy of the compounds against T. gondii was evaluated via quantitative real-time PCR with DNA from the brain, liver, and spleen. The numbers of parasites in the tissue samples were determined using standard curves constructed using known numbers of tachyzoites, as previously described.

T. gondii RH tachyzoites = assay: Screening for anti-T. gondii activity in vitro (plaque and qPCR assays); format: cell-based, Toxoplasma gondii; details: 30 μM screening
Method: The anti-T. gondii activity of compounds NBZ001‒037 was examined via RT-PCR. Confluent Vero cells in 6-well plates were infected with 2 × 10^5 T. gondii RH tachyzoites per well, incubated for 6 h, and then washed twice with PBS to remove extracellular tachyzoites. The cell monolayers were incubated with DMEM (1% FBS) containing various concentrations of NBZ001‒037 for 24 h. Total genomic DNA from each sample was isolated with the DNAiso reagent (Takara), and the levels of the 529-bp repeat element of T. gondii were measured by qPCR. A plaque assay was used to evaluate the activity of the compounds. The detailed experimental procedures were described in previous studies.

Row | SMILES | proliferation ability of the T. gondii PRU strain (parasites per PV, number of PVs) (T. gondii PRU strain) | IC50 [1] [µM] | number of parasitophorous vacuoles (PVs) invaded by RH-GFP tachyzoites [1] | ultrastructural change of T. gondii tachyzoites (TEM) (T. gondii tachyzoites; 24 h of treatment) | ultrastructural change of T. gondii tachyzoites (TEM) (T. gondii tachyzoites; incubation 8 h) | inhibition of the formation of T. gondii cysts compared with control [2] | Cytotoxicity (Vero cells) [µM] | inhibition at 30 µM (Vero cells) [%] | CC50 at 24 h [3] [µM] | selectivity index (SI) ([4]; CC50 host cells / IC50 proliferation) | IC50 [4] [µM] | reduction of mean T. gondii burden in the liver [5] [%] | reduction of mean numbers of T. gondii parasites in the brain [5] [%] | reduction of mean numbers of T. gondii parasites in the spleen [5] [%] | increase in potency compared with nonaromatic heterocycles (NBZ016–018) (T. gondii RH tachyzoites)
1 | O=C(Nc1ccccc1)c1ccc2[nH]c3c(C(=O)c4cccc(Br)c4)nccc3c2c1 [NBZ023] | significantly (P ≤ 0.05) inhibited | 4.72 | significantly reduced | the parasite ruptured, and severe cavitation occurred | cracks in the somatic cytoplasm of the parasite | twofold | > 30.00 | 4.56 | 883 | 309.8 | 2.85 | 56.42 | 70.72 | 68.90 | 2- to 3 fold
2 | O=C(Nc1ccccc1)c1ccc2[nH]c3c4[n+](ccc3c2c1)-c1ccccc1C4=O [NBZ035] | significantly (P ≤ 0.05) inhibited | 1.13 | significantly reduced | the parasite ruptured, and severe cavitation occurred | cracks in the somatic cytoplasm of the parasite | twofold | > 30.00 | 3.27 | 80.6 | – | 1.6 | 88.52 | 93.21 | 89.40 | –
